Laboratory results taken from patent publication US8673366B2, “Chemotherapeutic and prophylactic pharmaceutical compositions” (priority 2004, dated 2014).
Read-outs that look alike come from different tables or passages of the source.

How the values were obtained:
[1] = test system: Escherichia coli (E. coli) strain procured from a patient; assay: MIC macrodilution (NCCLS) serial dilution; format: cell-based; parameters: key to growth in MIC tube: “+” denotes visually detectable growth in MIC tube.; “NG” denotes “no growth” in MIC tube; key to MIC: “NE” denotes not effective; conditions: for MIC: antibiotics
Protocol: (§1) Cell suspension concentration was calculated by measuring the optical density (A610) between 0.6 and 0.9.
(§2) To study efficacy, the challenge was done by determining minimum inhibitory concentration or MIC by employing serial dilutions. The minimum inhibitory concentration or MIC is defined as the minimum concentration of antibiotic that will inhibit the growth of the isolated microorganism. In its normal mode of operation, a bacterial inoculum is inoculated into tubes containing culture media and varying concentrations of the antibiotic to be tested. The tubes are incubated to allow bacterial growth. The MIC is read as the lowest concentration of biocide that inhibited bacterial growth. The interpretation of this MIC depends on the organism/biocide pair being tested, and is made following standard guidelines. MIC testing of the present compositions was conducted via a macrodilution procedure using NCCLS (National Committee for Clinical Laboratory Standards) methods for antibiotic susceptibility testing. The biological experiments were conducted by serial dilution with Muller Hinton media of ten tubes where the bacterial concentration was 10 million cells/ml in each. In addition to the “as is” samples (i.e. 100%), ten 1:1 serial dilutions of each sample were tested to determine the MIC for each sample-inoculum combination. The equivalent percentages of the dilutions are: 100, 50, 25, 12.5, 6.25, 3.125, 1.562, 0.781, 0.391, and 0.195%. These tubes were then incubated at 37±2° C. for approximately 24 hours without agitation. The tubes were then observed for presence and level of visible growth.

[2] = test system: Staphylococcus aureus (S. aureus) ATCC 43300; assay: MIC macrodilution (NCCLS) serial dilution; format: cell-based; parameters: key to growth in MIC tube: “+” denotes visually detectable growth in MIC tube.; “NG” denotes “no growth” in MIC tube; conditions: for MIC: antibiotics
Protocol: as §1, §2

[3] = test system: MCF-7; conditions: for % Inhibition: 72 hrs
Protocol: (§3) Cells are plated in a 96 well flat bottom tissue culture plates at 10,000 cells/well. Dilutions and controls are added to wells as follows:
(§4) Vero Cells were grown and tested in complete Dulbeco's Modified Eagles Medium (DMEM) supplemented with 15% Fetal Bovine Serum (FBS), Gentamicine 40 μg/ml, Hepes buffer at pH=7.2, L-Glutamine 2 mM and Sodium pyruvate. MCF-7 were grown and tested in complete RPMI-1640 medium supplemented with 10% FBS Gentamicine 40 μg/ml, Hepes buffer at pH=7.2, L-Glutamine 2 mM and Sodium pyruvate. Plates were incubated in CO2 in a humidified incubator at 37° C. for 72 hrs, and then each well was harvested and counted by Trypan Blue dye exclusion method. Numbers of viable cells were counted on a hemacytometer and adjusted for concentration of cells/ml. For comparative purposes, experiments with Cisplatin ([…], MW=300), a well-known chemotherapeutic drug, at 8 and 4 μM were also conducted.
(§5) The methodology was the same as the one employed for Example 1 above.

[4] = test system: Vero (Simian Kidney Immortalized Cell Line); assay: Cytotoxic effect, Trypan Blue viable cell count after 72 hrs; format: cell-based
Protocol: as §3, §4

[5] = test system: BHL-89 (Human B-type EBNA negative lymphoma); conditions: Example 2, FIG. 3, down to dilution 1:256 (18 and 3.64 μM silver and iron)
Protocol: as §3, §4, §5

[6] = test system: T-47D; conditions: Example 2, FIG. 3, down to dilution 1:256 (18 and 3.64 μM silver and iron)
Protocol: as §3, §4, §5

[7] = test system: Jurkat; conditions: Example 2, FIG. 3, down to dilution 1:256 (18 and 3.64 μM silver and iron)
Protocol: as §3, §4, §5

[8] = 100% of initial, approx. 24 hours, 37°C
[9] = S. aureus (ATCC 43300), 100% of initial, approx. 24 hours, 37°C

Molecule: OO [50 mM H2O2, hydrogen peroxide]
- growth in MIC tube ([1]; 0.195% of initial): +
- growth in MIC tube ([1]; 0.391% of initial): +
- growth in MIC tube ([1]; 0.781% of initial): +
- growth in MIC tube ([1]; 1.562% of initial): +
- growth in MIC tube ([1]; 3.125% of initial): +
- growth in MIC tube ([1]; 6.25% of initial): +
- growth in MIC tube ([1]; 12.5% of initial): +
- growth in MIC tube ([1]; 25% of initial): NG
- growth in MIC tube ([1]; 50% of initial): NG
- growth in MIC tube [1, 8]: NG
- growth in MIC tube [2, 9]: +
- growth in MIC tube ([2]; S. aureus, 0.195% of initial): +
- growth in MIC tube ([2]; S. aureus, 0.391% of initial): +
- growth in MIC tube ([2]; S. aureus, 0.781% of initial): +
- growth in MIC tube ([2]; S. aureus, 1.562% of initial): +
- growth in MIC tube ([2]; S. aureus, 3.125% of initial): +
- growth in MIC tube ([2]; S. aureus, 6.25% of initial): +
- growth in MIC tube ([2]; S. aureus, 12.5% of initial): +
- growth in MIC tube ([2]; S. aureus, 25% of initial): +
- growth in MIC tube ([2]; S. aureus, 50% of initial): +

Molecule: N.N.[Cl][Pt][Cl] [Cisplatin]
- % Inhibition ([3]; 4 μM): 72%
- % Inhibition ([3]; 8 μM): 90%
- % Inhibition ([4]; 4 μM): no effect
- % Inhibition ([4]; 4 μM, listed as CIS PLA): −7%
- % Inhibition ([4]; 8 μM): 61%

Molecule: Cc1onc(-c2ccccc2)c1C(=O)N[C@@H]1C(=O)N2[C@@H]1SC(C)(C)[C@@H]2C(=O)O [OXA, Oxacillin]
- growth in MIC tube ([1]; 0.195% of initial): +
- growth in MIC tube ([1]; 0.391% of initial): +
- growth in MIC tube ([1]; 0.781% of initial): +
- growth in MIC tube ([1]; 1.562% of initial): +
- growth in MIC tube ([1]; 3.125% of initial): +
- growth in MIC tube ([1]; 6.25% of initial): +
- growth in MIC tube ([1]; 12.5% of initial): +
- growth in MIC tube ([1]; 25% of initial): +
- growth in MIC tube ([1]; 50% of initial): +
- growth in MIC tube [1, 8]: +
- MIC [1]: NE
- growth in MIC tube [2, 9]: NG
- growth in MIC tube ([2]; S. aureus, 0.195% of initial): +
- growth in MIC tube ([2]; S. aureus, 0.391% of initial): +
- growth in MIC tube ([2]; S. aureus, 0.781% of initial): NG
- growth in MIC tube ([2]; S. aureus, 1.562% of initial): NG
- growth in MIC tube ([2]; S. aureus, 3.125% of initial): NG
- growth in MIC tube ([2]; S. aureus, 6.25% of initial): NG
- growth in MIC tube ([2]; S. aureus, 12.5% of initial): NG
- growth in MIC tube ([2]; S. aureus, 25% of initial): NG
- growth in MIC tube ([2]; S. aureus, 50% of initial): NG
- MIC ([2]; Staphylococcus aureus, ATCC43300, S. aureus, read-out: MIC): 1.56 µg/mL

Molecule: O=P1(N(CCCl)CCCl)NCCCO1 (stereo not shown) [cyclophosphamide]
- cytotoxic effect (in words) [5]: does not have any effects
- cytotoxic effect (in words) [6]: does not have any effects
- cytotoxic effect (in words) ([3]; Example 2, FIG. 3, down to dilution 1:256 (18 and 3.64 μM silver and iron)): minimum effects
- cytotoxic effect (in words) [7]: minimum effects

Molecule: Gentamicin
- growth in MIC tube ([1]; 0.195% of initial): +
- growth in MIC tube ([1]; 0.391% of initial): +
- growth in MIC tube ([1]; 0.781% of initial): +
- growth in MIC tube ([1]; 1.562% of initial): +
- growth in MIC tube ([1]; 3.125% of initial): +
- growth in MIC tube ([1]; 6.25% of initial): +
- growth in MIC tube ([1]; 12.5% of initial): +
- growth in MIC tube ([1]; 25% of initial): +
- growth in MIC tube ([1]; 50% of initial): +
- growth in MIC tube [1, 8]: +
- MIC [1]: NE
- growth in MIC tube [2, 9]: NG
- growth in MIC tube ([2]; S. aureus, 0.195% of initial): NG
- growth in MIC tube ([2]; S. aureus, 0.391% of initial): NG
- growth in MIC tube ([2]; S. aureus, 0.781% of initial): NG
- growth in MIC tube ([2]; S. aureus, 1.562% of initial): NG
- growth in MIC tube ([2]; S. aureus, 3.125% of initial): NG
- growth in MIC tube ([2]; S. aureus, 6.25% of initial): NG
- growth in MIC tube ([2]; S. aureus, 12.5% of initial): NG
- growth in MIC tube ([2]; S. aureus, 25% of initial): NG
- growth in MIC tube ([2]; S. aureus, 50% of initial): NG
- MIC ([2]; S. aureus): 0.391 ppm
